These results are taken from publication PMC4688878 (Chemical Research in Toxicology, 2015).

For the experiment, the target named is T1, porcine liver COMT (Sus scrofa, UniProt Q99028).
T1 sequence (Q99028 1-186): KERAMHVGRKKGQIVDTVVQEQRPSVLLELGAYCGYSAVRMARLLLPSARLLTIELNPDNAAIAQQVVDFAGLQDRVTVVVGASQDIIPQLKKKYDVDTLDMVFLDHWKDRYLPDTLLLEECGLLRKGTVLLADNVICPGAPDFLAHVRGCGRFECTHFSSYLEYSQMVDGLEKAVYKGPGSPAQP
Nature of the experiment: Catechol O-methyltransferase activity assay. Format: biochemical. The settings on record: 1 mM sinefungin; 1 mM SAM; 2 h at 37 °C.

As for `Nc1ncnc2c1ncn2[C@@H]1O[C@H](C[C@@H](N)CC[C@H](N)C(=O)O)[C@@H](O)[C@H]1O` [singfungin, sinefungin], the “inhibition of COMT activity” value is given as “significantly inhibited”.
